Test results published in publication PMC4721142, “Randomized controlled studies on the efficacy of antiarthritic agents in inhibiting cartilage degeneration and pain associated with progression of osteoarthritis in the rat” (Arthritis Research & Therapy, 2016).
Where “and” joins values, the source holds several entries; their conditions need not be identical. Equal entries are not always repeated.

How the values were obtained:
MMT/MCLT rat model of OA = assay: MMT/MCLT trial 2 histopathology (same doses); assay type: in vivo; design: key to Tibial cartilage degeneration score, 3-zone total: sum of three tibial zone scores (each on 5-point scale); key to Total joint score w/o femur / Total joint score: sum: cartilage degeneration scores + mean osteophyte score; settings: for Bone score / Depth ratio any matrix change, mean / Depth ratio any matrix change, zone 2 / Femoral cartilage degeneration score / Tibial cartilage degeneration score, 3-zone total / Tibial cartilage degeneration score, zone 1 / Tibial cartilage degeneration score, zone 2 / Tibial cartilage degeneration score, zone 3 / Tibial cartilage degeneration width, substantial (>50% thickness) / Tibial cartilage degeneration width, total / Tibial osteophyte measure / Tibial osteophyte score / Total joint score / Total joint score w/o femur: mean; for % decrease, bone score / % decrease, depth ratio mean / % decrease, femoral cartilage degeneration score / % decrease, osteophyte measure / % decrease, osteophyte score / % decrease, substantial degeneration width / % decrease, tibial score 3-zone total / % decrease, tibial score zone 1 / % decrease, tibial score zone 3 / % decrease, total degeneration width / % decrease, total joint score / % decrease, total joint score w/o femur / % decrease, depth ratio zone 2 / % decrease, tibial score zone 2: vs saline group
Excerpt: For MMT/MCLT rat knee joints, sections were cut in 200-μm steps; stained with toluidine blue (also with a right and left half per section); and similarly analyzed for cartilage degeneration, proteoglycan loss, collagen damage, and osteophyte formation. Results were averaged across the three sections for an overall semiquantitative score. Regional differences across the tibial plateau were taken into consideration by dividing each section into three zones delineated using an ocular micrometer (outside, middle, and inside). Scores were based on the percentage of area affected within the zone.
Cartilage degeneration in the tibia was scored on a 5-point scale as detailed in the Methods section of Additional file 1. The total extent of degeneration of the tibial plateau was measured (in micrometers) and included an analysis of cell loss, proteoglycan loss, and collagen damage. Significant cartilage degeneration reflecting any degeneration extending through more than 50 % of the cartilage thickness was also measured. Collagen damage across the medial tibial plateau (the most severely affected section of the two halves) was also quantified.
Osteophytes and femoral cartilage degeneration were analyzed as detailed in Additional file 1. Scoring of the osteophytes and categorization into small, medium, and large was performed using an ocular micrometer. The actual osteophyte measurement (tidemark to farthest distance point extending toward the synovium) was also recorded. The femoral cartilage degeneration score and the three-zone sum of the tibial cartilage degeneration scores (mean of three levels) were summed to create a total cartilage degeneration score. The mean osteophyte score for each joint was added to this value to create a total joint score. […]
Histopathology MMT/MCLT Model

HeLa cells = assay: HeLa cell viability (CellTiter-Glo)
Method in brief: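 HeLa cells with and without drug were tested for viability by CellTiter-Glo luminescence as a toxicity read-out. In the companion NF-κB reporter assay, cells co-transfected with NF-κB firefly and Renilla luciferase plasmids (8:1) were read by Dual-Glo 5 h later, normalized to viable cells and expressed as fold over unstimulated, untreated cells.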

MIA rat model of OA = assay: MIA trial 3 digital Randall-Selitto test (weekly i.a. clonidine 4.5 μg, tacrolimus 30 ng, fluocinolone 15 ng, meloxicam 100 μg, tranilast 500 ng, TH 150 μg; clonidine 100 μg/kg s.c.); assay type: in vivo
Method: The digital Randall-Selitto (dRS) test is said to be a reliable and repeatable measure of neuropathic, bone, and inflammatory pain behavior in several different models, including those of arthritic or joint pain [29, 31, 32]. Baseline and posttreatment values were evaluated using a dRS test device (IITC Life Science, Woodland Hills, CA, USA). Animals were allowed to acclimate to the testing room before all experimentation and for a minimum of 30 minutes before testing. To ensure that their hind limbs were accessible, the animals were gently suspended in a restraint sling. The joint compression threshold was measured once at each time point for the ipsilateral and contralateral knee joints. Pressure was applied gradually over approximately 10 seconds to the medial and lateral aspects of the knee joint. Measurements were taken from the first observed behavior of vocalization, struggle, or withdrawal. A cutoff value of 600 g was used to prevent injury to the animal.
Following isoflurane anesthesia, 50 μl (2 mg) of MIA was injected into the synovial space of the left knee. Animals were randomly assigned to groups, and pain behavior was assessed 7, 14, 21, and 28 days following MIA injection and intervention using WB with the Stoelting incapacitance meter (trial 1) or the dRS test (trials 2 and 3). […] Animals received MIA treatment and then saline control or therapeutic. […] Histopathology was performed at each time point and at study termination. All studies were conducted in accordance with the International Association for the Study of Pain Guidelines and were approved by the Algos Therapeutics, Inc. Institutional Animal Care and Use Committee (IACUC) before initiation. Those running the studies were blind to the treatments. See Additional file 1 for further details. […]
struggle or withdrawal. A cut-off value of 600 g was used to prevent injury to the animal. The mean and standard error of the mean (SEM) were determined for each treatment group.
Statistical significance was assigned as p ≤ 0.05. The stability of the vehicle group over time was assessed on each testing day (Days 7, 14, 21, and 28) using repeated measures one-way analysis of variance (ANOVA) comparing joint compression thresholds at each experimental time point on a given testing day versus that testing day’s pre-treatment value. Osteoarthritis-related pain in the vehicle group was estimated at each time point on each testing day by comparing ipsilateral (injured) to contralateral (normal) joint compression thresholds using paired t-tests. The progression of osteoarthritis-related pain in the vehicle group was estimated by comparing pre-treatment joint compression thresholds on each testing day versus pre-MIA measurements using repeated measures one-way ANOVA. […]
thresholds at each experimental time point on a given testing day with vehicle treated animals using an unpaired t-test. The acute effect of Tacrolimus was analyzed by comparing joint compression thresholds at each time point on a given testing day with the corresponding pre-treatment baseline values using repeated measures one-way ANOVA and compared to vehicle treated animals using […]
values using repeated measures one-way ANOVA. Chronic effects were analyzed by comparing pre-treatment joint compression thresholds on each testing day versus the appropriate Day 7 pre-treatment values using repeated measures one-way ANOVA and by comparing pre-treatment joint compression thresholds with vehicle treated animals on each testing day using an unpaired t-test or one-way ANOVA. Day 7 pre-treatment joint compression thresholds between all groups were assessed using one-way ANOVA. The Dunnett’s multiple comparison post hoc test was used when […]
dosing were housed three per cage. Animals had free access to food and water and were maintained […]
The animal colony was maintained at approximately 21 °C. All experiments were conducted in accordance with the International Association for the Study of Pain Guidelines.

[1] = tacrolimus 30 ng i.a., clonidine 100 μg/kg s.c.
[2] = i.a., tacrolimus 15 ng, curcumin 30 μg

## C=CC[C@@H]1/C=C(\C)C[C@H](C)C[C@H](OC)[C@H]2O[C@@](O)(C(=O)C(=O)N3CCCC[C@H]3C(=O)O[C@H](/C(C)=C/[C@@H]3CC[C@@H](O)[C@H](OC)C3)[C@H](C)[C@@H](O)CC1=O)[C@H](C)C[C@@H]2OC [Tacrolimus]
MMT/MCLT rat model of OA; i.a., tacrolimus 15 ng
  Bone score: 2.60
  Depth ratio any matrix change, mean: 0.25
  Depth ratio any matrix change, zone 2: 0.06
  Femoral cartilage degeneration score: 0.87 and 0.87 ± 0.36
  Tibial cartilage degeneration score, 3-zone total: 4.43
  Tibial cartilage degeneration score, zone 1: 3.37
  Tibial cartilage degeneration score, zone 2: 1.07
  Tibial cartilage degeneration score, zone 3: 0.00
  Tibial cartilage degeneration width, substantial (>50% thickness): 536.67 µm
  Tibial cartilage degeneration width, total: 1060.00 µm
  Tibial osteophyte measure: 446.67 µm
  Tibial osteophyte score: 3.30
  Total joint score: 8.60 and 8.60 ± 0.63
  Total joint score w/o femur: 7.73
  % decrease, bone score: 19%
  % decrease, depth ratio mean: 23%
  % decrease, femoral cartilage degeneration score: 19%
  % decrease, osteophyte measure: 5%
  % decrease, osteophyte score: 7%
  % decrease, substantial degeneration width: 17%
  % decrease, tibial score 3-zone total: 21%
  % decrease, tibial score zone 1: 10%
  % decrease, tibial score zone 3: 100%
  % decrease, total degeneration width: 12%
  % decrease, total joint score: 16%
  % decrease, total joint score w/o femur: 16%
MMT/MCLT rat model of OA; [1]
  Bone score: 2.60
  Depth ratio any matrix change, mean: 0.28
  Depth ratio any matrix change, zone 2: 0.08
  Femoral cartilage degeneration score: 0.80 and 0.8 ± 0.19
  Tibial cartilage degeneration score, 3-zone total: 4.73
  Tibial cartilage degeneration score, zone 1: 3.50
  Tibial cartilage degeneration score, zone 2: 1.20
  Tibial cartilage degeneration score, zone 3: 0.03
  Tibial cartilage degeneration width, substantial (>50% thickness): 576.67 µm
  Tibial cartilage degeneration width, total: 1090.00 µm
  Tibial osteophyte measure: 457.33 µm
  Tibial osteophyte score: 3.37
  Total joint score: 8.90 and 8.90 ± 0.66
  Total joint score w/o femur: 8.10
MMT/MCLT rat model of OA; tacrolimus 15 ng i.a.
  % decrease, width of severe collagen degeneration: 86%
MMT/MCLT rat model of OA; tacrolimus 30 ng i.a.
  % decrease, width of severe collagen degeneration: 87%
  % decrease, bone score: 19%
  % decrease, depth ratio mean: 15%
  % decrease, depth ratio zone 2: 50%
  % decrease, femoral cartilage degeneration score: 25%
  % decrease, osteophyte measure: 3%
  % decrease, osteophyte score: 6%
  % decrease, substantial degeneration width: 11%
  % decrease, tibial score 3-zone total: 15%
  % decrease, tibial score zone 1: 6%
  % decrease, tibial score zone 2: 35%
  % decrease, tibial score zone 3: 0%
  % decrease, total degeneration width: 10%
  % decrease, total joint score: 13%
  % decrease, total joint score w/o femur: 12%
MMT/MCLT rat model of OA; [2]
  % decrease, depth ratio zone 2: 59%
  % decrease, tibial score zone 2: 42%
HeLa cells
  Non-toxic concentrations: 0 to 49.6 M

## COc1ccc(C=CC(=O)Nc2ccccc2C(=O)O)cc1OC [Tranilast, N-(3′,4′-dimethoxycinnamoyl)anthranilic acid]
MIA rat model of OA; day 14
  dRS, hours after dosing with significant difference: 1 h
MIA rat model of OA; day 21
  dRS, hours after dosing with significant difference: 1 h

## CC(C)(C)CC(=O)OCC(=O)[C@@]12OC(C)(C)O[C@@H]1C[C@H]1[C@@H]3CCC4=CC(=O)C=C[C@]4(C)[C@@]3(F)[C@@H](O)C[C@@]12C [Triamcinolone hexacetonide]
MMT/MCLT rat model of OA; i.a., tacrolimus 15 ng
  Femoral cartilage degeneration score: 2.03 ± 0.52
  Total joint score: 11.30 ± 1.21
MIA rat model of OA; day 7
  dRS, hours after dosing with significant difference: 3 h
MIA rat model of OA; day 14
  dRS, hours after dosing with significant difference: 1 h
MIA rat model of OA; day 21
  dRS, hours after dosing with significant difference: Pretrt^f
MIA rat model of OA; day 28, negative = worse
  dRS, hours after dosing with significant difference: -24 h

## CC1=C(CO)C(=O)O[C@@H]([C@@H](C)[C@H]2CC[C@H]3[C@@H]4C[C@H]5O[C@]56[C@@H](O)C=CC(=O)[C@]6(C)[C@H]4CC[C@]23C)C1 [Withaferin A]
HeLa cells
  Non-toxic concentrations: 0 to 17 M
